According to US20230218542A1, “MEDICAMENT FOR TREATING HYPERTENSION” (priority 2022, published 2023):

Test system: L-NAME-induced hypertensive rats
Experiment: Therapeutic effect on L-NAME-induced hypertensive rats (Effect Verification 1), tail artery pressure
Assay type: in vivo, SD rats
Conditions: for antihypertensive effect (overall finding): SBP and DBP, three weeks of administration; for comparison of SBP with that in the group M: after the end of the administration (third week)
Method: The tail artery pressure, including systolic blood pressure (SBP) and diastolic blood pressure (DBP), was measured in rats in the resting state at the same time using an ALC-NIBP noninvasive blood pressure measuring instrument. One hundred and fifty-two 6-week-old male SD rats were taken and subjected to adaptive feeding for one week at room temperature of 18-26° C. with the relative humidity of 40%-70% and illumination by artificial lighting from 9:00 to 21:00 every day. After one week, blood pressure in all of them was measured, the results were charted using Excel 2010, and the experimental data were analyzed using SPSS 20.0, where P < 0.05 indicated statistical significance and the measurement data were expressed as x̅ ± s. […] According to the commonly used grading criteria for hypertension, SBP 140 mmHg is the critical value of hypertension, and every 20 mmHg is one grade. Every 10 mmHg of DBP is one grade. Therefore, SBP > 140 mmHg is set as mild hypertension and SBP > 160 mmHg is set as moderate hypertension; optionally, DBP increased by more than 10 mmHg is mild hypertension and DBP increased by more than 20 mmHg is moderate hypertension.
Rats with the blood pressure in the normal range measured in the step 1 above and the weight of 200 ± 20 g were randomly taken and grouped into 7 groups: a control group (K) containing 8 rats, a model control group (M), a ligustrazine administration group (TMP, 60 mg/kg), a cannabidiol administration group (CBD, 60 mg/kg), and combined administration groups of TMP and CBD (divided into three groups in different ratios of 2:1 (XA), 1:1 (XB) and 1:2 (XC), TMP = 60 mg/kg, and CBD was 30 mg/kg, 60 mg/kg and 120 mg/kg, respectively). 10 rats were contained in each remaining group. Except for group K, 12 mg/kg L-NAME was administered intragastrically to the rest at 9:00 every day to manufacture a hypertension model, and distilled water was administered in an equal amount to K group. By the fourth week, blood pressure was measured in each group, and after individuals with SBP < 140 mmHg were excluded from the model, each group was administered for three weeks, and drug vehicles were administered in an equal amount to groups K and M. Blood pressure was measured once a week during the administration period. (The animal model was fasted for two hours before the administration, and the medicament was bathed to room temperature. TMP solution at 1 mL/100 g was firstly administered intragastrically to the combined administration groups of TMP and CBD, and after 1 h interval, CBD solution at the corresponding half volume was then administered intragastrically.)
One-way ANOVA analysis (Duncan) was used for pairwise comparisons among groups, and paired-sample t-test was used for before-and-after comparisons within groups. The change trend of SBP of rats in each group is shown in FIG. 2 and the change trend of DBP of rats in each group is shown in FIG. 3, and the abscissa “0” represents the fourth week of molding, i.e., the beginning of the administration period.

[1] = one week of intragastric administration
[2] = three weeks of intragastric administration
[3] = two weeks of intragastric administration

C=C(C)[C@@H]1CCC(C)=C[C@H]1c1c(O)cc(CCCCC)cc1O [CBD, cannabidiol]
antihypertensive effect (overall finding): significant antihypertensive effect
decrease of SBP (after the end of the administration): more than 10 mmHg
comparison of SBP with that in the group M: significant difference
Effect = (SBP in model group - SBP in administration group)/(SBP in model group - SBP in control group) [1]: 0.3222
Effect = (SBP in model group - SBP in administration group)/(SBP in model group - SBP in control group) [2]: 0.3418
Effect = (SBP in model group - SBP in administration group)/(SBP in model group - SBP in control group) [3]: 0.3628

ligustrazine phosphate [TMP]
antihypertensive effect (overall finding): no significant antihypertensive effect
comparison of SBP with that in the group M: no significant difference
Effect = (SBP in model group - SBP in administration group)/(SBP in model group - SBP in control group) [1]: 0.0716
Effect = (SBP in model group - SBP in administration group)/(SBP in model group - SBP in control group) [2]: 0.1722
Effect = (SBP in model group - SBP in administration group)/(SBP in model group - SBP in control group) [3]: 0.0780
